From patent publication US6410810B1, “Handling method of (fluoroaryl) borane compound and preparing method of hydrocarbon solution” (Nippon Shokubai Co., Ltd., priority 1997, dated 2002)

Experimental: The cake is analyzed by ^19F-NMR. More specifically, ^19F-NMR is measured under predetermined conditions using p-fluorotoluene as an internal standard reagent. Then, a peak integral of a fluorine atom of p-fluorotoluene, and a peak integral of fluorine atoms at the ortho-position of a pentafluorophenyl group in tris(pentafluorophenyl)borane are computed from the resulting ^19F-NMR chart first, and thence a weight of tris(pentafluorophenyl)borane is computed using the above two peak integrals.
Here, 0.4963 g (purity: 99%, area ratio) of powders of tris(pentafluorophenyl)borane and 16.0878 g of IsoparE are charged to a vessel, in which the air has been displaced by a nitrogen gas satisfactorily, after which the mixture is stirred for 3 hours or so at 28° C. with stirring.
After the solution is cooled to room temperature, the supernatant is analyzed in the same manner as Example 1 above using ^19F-NMR.

Fc1c(F)c(F)c(B(c2c(F)c(F)c(F)c(F)c2F)c2c(F)c(F)c(F)c(F)c2F)c(F)c1F [tris(pentafluorophenyl)borane]
concentration of tris(pentafluorophenyl)borane in supernatant: 0.91 wt %
solubility with respect to IsoparE: 0.91 wt %
temperature at which completely dissolved into IsoparE (0.4963 g powders in 16.0878 g IsoparE, heated): 87 °C
dissolution into IsoparE (0.4963 g powders in 16.0878 g IsoparE, stirred 3 hours or so at 28° C.): does not dissolve into IsoparE completely
purity after dissolving with heating (stability) (3 wt %): 83.0 % (area ratio)
temperature at which the solution starts to crystallize on cooling (IsoparE solution allowed to stand and cooled): 63 °C
